US20240067657A1, “AMIDO-SUBSTITUTED PYRIDYL COMPOUNDS AND METHODS OF USE THEREOF FOR THE TREATMENT OF HERPESVIRUSES” (Merck Sharp & Dohme LLC, priority 2020, published 2024)
Like-named read-outs stand apart in the source and are kept apart here.

What was measured:
[1] = molecular target: T1, Human cytomegalovirus DNA polymerase (Human cytomegalovirus, UniProt P08546); test: HCMV polymerase assay (AlphaLISA, IC50); assay type: biochemical; conditions: polymerase assay of Example 190
T1 construct: made in house; host or cells: SF21 insect cells (baculovirus vector)
T1 sequence (P08546 whole entry): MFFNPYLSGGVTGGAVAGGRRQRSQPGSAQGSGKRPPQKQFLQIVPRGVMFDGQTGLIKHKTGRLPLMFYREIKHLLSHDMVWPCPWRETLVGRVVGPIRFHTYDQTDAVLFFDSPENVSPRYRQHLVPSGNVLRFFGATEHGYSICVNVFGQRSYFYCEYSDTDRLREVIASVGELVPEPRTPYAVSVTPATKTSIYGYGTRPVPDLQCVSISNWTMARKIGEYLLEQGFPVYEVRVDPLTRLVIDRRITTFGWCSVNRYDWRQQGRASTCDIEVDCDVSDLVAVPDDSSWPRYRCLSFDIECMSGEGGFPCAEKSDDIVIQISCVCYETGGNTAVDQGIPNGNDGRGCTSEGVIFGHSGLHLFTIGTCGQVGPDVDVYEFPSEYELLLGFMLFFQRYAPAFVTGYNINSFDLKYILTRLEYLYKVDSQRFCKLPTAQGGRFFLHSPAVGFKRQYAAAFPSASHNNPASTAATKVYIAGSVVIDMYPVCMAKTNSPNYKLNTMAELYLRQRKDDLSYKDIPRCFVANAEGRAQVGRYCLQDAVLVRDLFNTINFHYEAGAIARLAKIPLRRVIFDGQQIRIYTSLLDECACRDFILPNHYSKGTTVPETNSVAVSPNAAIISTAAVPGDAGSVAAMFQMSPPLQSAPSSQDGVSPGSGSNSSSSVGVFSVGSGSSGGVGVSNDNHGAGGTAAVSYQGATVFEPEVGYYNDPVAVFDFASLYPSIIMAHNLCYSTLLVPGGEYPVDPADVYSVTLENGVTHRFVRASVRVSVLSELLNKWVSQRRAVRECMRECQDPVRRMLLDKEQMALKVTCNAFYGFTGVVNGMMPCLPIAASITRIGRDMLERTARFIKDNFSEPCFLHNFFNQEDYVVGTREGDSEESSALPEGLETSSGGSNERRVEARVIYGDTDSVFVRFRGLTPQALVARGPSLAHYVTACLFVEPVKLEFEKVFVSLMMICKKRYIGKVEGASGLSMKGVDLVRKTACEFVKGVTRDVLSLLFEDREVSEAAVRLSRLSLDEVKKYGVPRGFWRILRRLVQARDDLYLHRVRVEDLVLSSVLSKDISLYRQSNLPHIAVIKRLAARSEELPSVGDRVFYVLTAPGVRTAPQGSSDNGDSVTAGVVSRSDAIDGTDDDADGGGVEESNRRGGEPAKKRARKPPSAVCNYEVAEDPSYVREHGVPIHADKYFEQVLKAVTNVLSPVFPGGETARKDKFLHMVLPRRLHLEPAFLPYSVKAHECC
In short: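 Baculovirus-expressed polymerase (HCMV 0.2 nM, VZV 0.4 nM final) preincubated 30 min at room temperature with compound in pH 7.5 HEPES buffer; reaction started with 1.6 nM DIG-primer/template and nM dNTPs including biotin-dUTP, run 60 min at 37° C. Incorporation detected by AlphaLISA; IC50 from 4-parameter fit.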

[2] = molecular target: T2, varicella zoster virus DNA polymerase (Varicella-zoster virus, UniProt P09252); test: VZV polymerase assay (AlphaLISA, IC50); assay type: biochemical; conditions: polymerase assay of Example 190
T2 construct: made in house; host or cells: SF21 insect cells (baculovirus vector)
T2 sequence (P09252 whole entry): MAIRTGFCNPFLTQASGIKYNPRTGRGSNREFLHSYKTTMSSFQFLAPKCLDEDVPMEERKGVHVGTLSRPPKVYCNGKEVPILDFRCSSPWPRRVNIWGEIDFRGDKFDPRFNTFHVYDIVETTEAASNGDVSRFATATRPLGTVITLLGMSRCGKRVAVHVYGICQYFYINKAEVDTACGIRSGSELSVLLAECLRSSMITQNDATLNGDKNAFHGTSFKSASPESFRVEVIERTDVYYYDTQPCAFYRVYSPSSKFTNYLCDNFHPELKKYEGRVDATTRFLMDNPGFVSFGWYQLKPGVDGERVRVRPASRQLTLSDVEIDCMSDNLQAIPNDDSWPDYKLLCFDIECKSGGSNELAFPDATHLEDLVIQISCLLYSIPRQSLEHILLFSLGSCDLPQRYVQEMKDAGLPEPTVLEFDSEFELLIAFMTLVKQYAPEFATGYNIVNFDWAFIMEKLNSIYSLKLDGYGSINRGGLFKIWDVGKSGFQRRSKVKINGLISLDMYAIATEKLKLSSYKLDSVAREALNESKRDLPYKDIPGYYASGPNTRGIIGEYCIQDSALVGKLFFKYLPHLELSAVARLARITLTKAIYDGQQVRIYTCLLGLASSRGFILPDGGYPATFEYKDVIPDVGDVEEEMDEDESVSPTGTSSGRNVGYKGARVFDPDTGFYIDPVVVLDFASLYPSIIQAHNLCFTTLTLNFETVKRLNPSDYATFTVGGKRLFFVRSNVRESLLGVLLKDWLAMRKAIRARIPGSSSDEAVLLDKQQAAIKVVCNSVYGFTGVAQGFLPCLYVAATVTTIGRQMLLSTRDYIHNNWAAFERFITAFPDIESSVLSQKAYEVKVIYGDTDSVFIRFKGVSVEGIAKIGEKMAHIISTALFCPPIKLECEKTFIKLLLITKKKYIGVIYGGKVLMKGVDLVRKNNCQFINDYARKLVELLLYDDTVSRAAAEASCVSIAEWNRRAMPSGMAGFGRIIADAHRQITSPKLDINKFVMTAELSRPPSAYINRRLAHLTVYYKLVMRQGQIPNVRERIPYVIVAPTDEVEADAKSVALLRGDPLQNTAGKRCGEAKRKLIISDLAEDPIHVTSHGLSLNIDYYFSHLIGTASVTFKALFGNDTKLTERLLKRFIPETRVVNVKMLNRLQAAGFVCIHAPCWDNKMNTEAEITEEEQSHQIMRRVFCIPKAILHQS
Protocol: Human cytomegalovirus and varicella zoster virus DNA polymerases were expressed via baculovirus vector in SF21 cells and purified. Heterodimeric nucleic acid substrate used in the herpesvirus polymerase reactions was generated by annealing a 59-mer template to a 17-mer digoxigenin-labeled primer. Polymerase (HCMV final concentration of 0.2 nM; VZV final concentration of 0.4 nM) was combined with an inhibitor compound or DMSO in assay buffer (10 mM HEPES, pH 7.5, 25 mM KCl, 25 mM NaCl, 5 mM MgCl2, 5% glycerol, 0.67 mg/ml bovine serum albuminutes, and 1 mM tris(2-carboxyethyl)phosphine), and this mixture was pre-incubated for 30 minutes at room temperature in 384-well microtiter plates. The polymerization reaction was initiated by the addition of template/primer substrate (final concentration: 1.6 nM), and dNTPs (final concentration: 24 nM dCTP, 24 nMdGTP, 16 nM dATP, 16 nM dTTP, and 0.8 nM biotin-dUTP). After 60 minutes incubation at 37° C., reactions were terminated with quench buffer (25 mM HEPES pH 7.5, 100 mM NaCl, 0.25% Tween-20, 12 mM EDTA, and 1 mg/ml bovine serum albumin). Incorporation of biotinylated UTP was detected with 2.5-5 ug/ml anti-DIG AlphaLISA acceptor beads and 5-10 ug/ml streptavidin AlphaLISA donor beads (Perkin Elmer). Compound effects were normalized to the window defined by the controls (DMSO only and pre-quenched wells), and were fit using a 4-parameter algorithm to report an IC50.

[3] = system: HCMV Strain AD169 in MRC-5 cells; test: Viral qPCR assay HCMV (V0/V1, V2/V3), EC50; assay type: cell-based; conditions: read-out: HCMV Cell (EC50)
In short: (§1)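 Infected cells added to compounds (10-point 3-fold series), ~72 h at 37 °C, then lysed; viral genomes by TaqMan qPCR against plasmid standard, normalized to PPIA in V0/V1 only, EC50 from 4-parameter fit. HCMV AD169, 0.05-0.1 pfu/cell, ± 50% FBS; VZV 0.04-0.1 pfu/cell; HSV-1 F 0.0005-0.004 pfu/cell.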

[4] = system: VZV in MeWo or MRC5 cells; test: Viral qPCR assay VZV (V0/V1, V2/V3), EC50; assay type: cell-based; conditions: 10%
In short: as §1

[5] = system: HSV-1 Strain F in Vero or MRC5 cells; test: Viral qPCR assay HSV-1 (V0/V1, V2/V3), EC50; assay type: cell-based; conditions: 10%
In short: as §1

[6] = Human betaherpesvirus 5, AD169, MRC5, viral qPCR assay of Example 191
[7] = Human alphaherpesvirus 3, MeWo, MEWO cells, read-out: VZV Cell (EC50) MEWO 10%
[8] = Human alphaherpesvirus 1, Vero, VERO cells, read-out: HSV1 Cell (EC50) VERO 10%
[9] = MRC5 cells, read-out: VZV Cell (EC50) MRC5 10%
[10] = MRC5 cells, read-out: HSV1 Cell (EC50) MRC5 10%
[11] = viral qPCR assay of Example 191
[12] = VERO cells, read-out: HSV1 Cell (EC50) VERO 10%
[13] = Human alphaherpesvirus 3, MRC5, MRC5 cells, read-out: VZV Cell (EC50) MRC5 10%
[14] = Human alphaherpesvirus 1, MRC5, MRC5 cells, read-out: HSV1 Cell (EC50) MRC5 10%

SMILES | IC50 [1] [nM] | IC50 [2] [nM] | EC50 [3, 6] [nM] | EC50 [4, 7] [nM] | EC50 [5, 8] [nM] | EC50 [4, 9] [nM] | EC50 [5, 10] [nM] | EC50 [3, 11] [nM] | EC50 [5, 12] [nM] | EC50 [4, 13] [nM] | EC50 [5, 14] [nM]
Cn1cc(-c2cnc(C(=O)NCc3ccc(Cl)cc3)cc2O[C@H]2CCN3C(=O)CC[C@H]3C2)cn1 (racemic) [Compound 170] | 178 | 87.4 | 736 | 599 | 266 |  |  |  |  |  | 
Cn1cc(-c2cnc(C(=O)NCc3ccc(Cl)cc3)cc2O[C@H]2CCN3C(=O)NC[C@H]3C2)cn1 (racemic) [Compound 171] | 219 | 87.7 | 1090 | 883 | 1950 |  |  |  |  |  | 
CC(C)(O)C1CCN(c2cnc(C(=O)NCc3ccc(Cl)cc3)cc2O[C@H]2CCN3C(=O)OC[C@@H]3C2)C1 (single isomer, unassigned) [Compound 117-1] | 22.7 | 10.5 | 360 |  |  | 844 | 566 |  |  |  | 
CC(C)(O)C1CCN(c2cnc(C(=O)NCc3ccc(Cl)cc3)cc2O[C@H]2CCN3C(=O)OC[C@@H]3C2)C1 (single isomer, unassigned) [Compound 117-2] | 12.1 | 3.05 |  |  |  | 9100 | 4780 | 211 |  |  | 
O=C(NCc1ccc(Cl)cc1)c1cc(O[C@H]2CCN3C(=O)OC[C@@H]3C2)c(C2CC2CO)cn1 (single isomer, unassigned) [Compound 156-1] | 40.3 | 24.9 |  |  |  | 2630 |  | 1280 | 3500 |  | 
O=C(NCc1ccc(Cl)cc1)c1cc(O[C@H]2CCN3C(=O)OC[C@@H]3C2)c(C2CC2CO)cn1 (single isomer, unassigned) [Compound 156-2] | 8.03 | 4.96 |  |  |  | 1180 |  | 600 | 738 |  | 
O=C(NCc1ccc(Cl)cc1)c1cc(O[C@H]2CCN3C(=O)CCC[C@@H]3C2)c(-c2cnn(C(F)F)c2)cn1 (single isomer, unassigned) [Compound 161-1] | 130 | 47.3 | 1330 | 210 | 461 |  |  |  |  |  | 
O=C(NCc1ccc(Cl)cc1)c1cc(O[C@H]2CCN3C(=O)OCC[C@@H]3C2)c(-c2cnn(C(F)F)c2)cn1 (single isomer, unassigned) [Compound 162-1] | 3.08 | 2.42 | 88.6 | 61.1 | 77 |  |  |  |  | 447 | 107
O=C(NCc1ccc(Cl)cc1)c1cc(O[C@H]2CCN3C(=O)OC[C@@H]3C2)c(-c2cnn(C(F)F)c2)cn1 [Compound 3] | 10.3 | 7.39 | 180 | 112 | 70.9 |  |  |  |  | 170 | 127
CC(=O)N1CCC(Oc2cc(C(=O)NCc3ccc(Cl)cc3)ncc2-c2cnn(C)c2)CC1 [Compound 6] | 79 | 30.8 | 342 | 84.5 | 144 |  |  |  |  |  | 
O=C(NCc1ccc(Cl)cc1F)c1cc(O[C@H]2CCN3C(=O)OC[C@@H]3C2)c(-c2cnn(C(F)F)c2)cn1 [Compound 8] | 26.2 | 33.3 | 440 | 368 | 259 |  |  |  |  |  | 
O=C(NCc1ccc(Cl)cc1)c1cc(O[C@H]2CCN3C(=O)OC[C@@H]3C2)c(-c2ccn(CC(F)(F)F)n2)cn1 [Compound 14] | 43.9 | 40.9 | 563 | 234 | 319 |  |  |  |  |  | 
CC(C)n1ccc(-c2cnc(C(=O)NCc3ccc(Cl)cc3)cc2O[C@H]2CCN3C(=O)OC[C@@H]3C2)n1 [Compound 15] | 29.2 | 19.9 | 176 | 159 | 160 |  |  |  |  |  | 
